Results from PubChem BioAssay (NCI).
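Protocol summary: plate cells (96-well), add compound at 5 concentrations, incubate 48 h, interpolate endpoints linearly. At the GI50, growth is halved. TGI denotes the concentration required for complete inhibition of growth.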

Tests used:
Experiment in all cases: inhibition of tumour cell growth, NCI panel, 48 h
UACC-62 melanoma = system: UACC-62 melanoma
U251 CNS = system: U251 CNS
HCC-2998 colon = system: HCC-2998 colon
MCF7 breast = system: MCF7 breast
CAKI-1 renal = system: CAKI-1 renal
CCRF-CEM leukemia = system: CCRF-CEM leukemia
HL-60(TB) leukemia = system: HL-60(TB) leukemia
BT-549 breast = system: BT-549 breast
786-0 renal = system: 786-0 renal
ACHN renal = system: ACHN renal
SK-MEL-28 melanoma = system: SK-MEL-28 melanoma
SK-MEL-2 melanoma = system: SK-MEL-2 melanoma
MOLT-4 leukemia = system: MOLT-4 leukemia
A549 NSCLC = system: A549 NSCLC
SN12C renal = system: SN12C renal
NCI-H522 lung = system: NCI-H522 lung
T-47D breast = system: T-47D breast
A498 renal = system: A498 renal
COLO 205 colon = system: COLO 205 colon
SF-268 CNS = system: SF-268 CNS
NCI-H226 lung = system: NCI-H226 lung
SNB-75 CNS = system: SNB-75 CNS
SK-OV-3 ovarian = system: SK-OV-3 ovarian
NCI-H460 lung = system: NCI-H460 lung
HCT-116 colon = system: HCT-116 colon
HT29 colon = system: HT29 colon
SF-539 CNS = system: SF-539 CNS
OVCAR-5 ovarian = system: OVCAR-5 ovarian
OVCAR-8 ovarian = system: OVCAR-8 ovarian
RPMI-8226 leukemia = system: RPMI-8226 leukemia
TK-10 renal = system: TK-10 renal
SK-MEL-5 melanoma = system: SK-MEL-5 melanoma
OVCAR-3 ovarian = system: OVCAR-3 ovarian
PC-3 prostate = system: PC-3 prostate
HOP-92 NSCLC = system: HOP-92 NSCLC
K-562 leukemia = system: K-562 leukemia
MDA-MB-435 = system: MDA-MB-435
RXF 393 renal = system: RXF 393 renal
HOP-62 NSCLC = system: HOP-62 NSCLC
SR leukemia = system: SR leukemia
MALME-3M melanoma = system: MALME-3M melanoma
M14 melanoma = system: M14 melanoma
NCI/ADR-RES ovarian = system: NCI/ADR-RES ovarian
LOX IMVI melanoma = system: LOX IMVI melanoma
SW-620 colon = system: SW-620 colon
UO-31 renal = system: UO-31 renal
DU-145 prostate = system: DU-145 prostate
SNB-19 CNS = system: SNB-19 CNS
SF-295 CNS = system: SF-295 CNS
IGROV1 ovarian = system: IGROV1 ovarian
HCT-15 colon = system: HCT-15 colon
KM12 colon = system: KM12 colon
NCI-H23 lung = system: NCI-H23 lung
OVCAR-4 ovarian = system: OVCAR-4 ovarian
MDA-MB-231 breast = system: MDA-MB-231 breast

C=CC(C)c1cccc(C=O)c1O (stereo not given) gave a GI50 (UACC-62 melanoma) of 44.6 µM, a TGI (UACC-62 melanoma) of over 100 µM and a GI50 (U251 CNS) of 42.6 µM. The TGI (U251 CNS) was over 100 µM, the GI50 (HCC-2998 colon) was over 100 µM and the TGI (HCC-2998 colon) was over 100 µM. It also gave a GI50 (MCF7 breast) of 15.8 µM, a TGI (MCF7 breast) of over 100 µM and a GI50 (CAKI-1 renal) of 45 µM. It also gave a TGI (CAKI-1 renal) of over 100 µM, a GI50 (CCRF-CEM leukemia) of 17.4 µM and a TGI (CCRF-CEM leukemia) of over 100 µM. It also gave a GI50 (HL-60(TB) leukemia) of 19.9 µM, a TGI (HL-60(TB) leukemia) of over 100 µM and a GI50 (BT-549 breast) of 23.8 µM. The TGI (BT-549 breast) was over 100 µM, the GI50 (786-0 renal) was 97.1 µM and the TGI (786-0 renal) was over 100 µM. The GI50 (ACHN renal) was 80.9 µM, the TGI (ACHN renal) was over 100 µM and the GI50 (SK-MEL-28 melanoma) was over 100 µM. It also gave a TGI (SK-MEL-28 melanoma) of over 100 µM, a GI50 (SK-MEL-2 melanoma) of 54 µM and a TGI (SK-MEL-2 melanoma) of over 100 µM. The GI50 (MOLT-4 leukemia) was 8.45 µM, the TGI (MOLT-4 leukemia) was over 100 µM and the GI50 (A549 NSCLC) was over 100 µM. It also gave a TGI (A549 NSCLC) of over 100 µM, a GI50 (SN12C renal) of 53.7 µM and a TGI (SN12C renal) of over 100 µM. The GI50 (NCI-H522 lung) was over 100 µM, the TGI (NCI-H522 lung) was over 100 µM and the GI50 (T-47D breast) was 28.8 µM. It also gave a TGI (T-47D breast) of over 100 µM, a GI50 (A498 renal) of over 100 µM and a TGI (A498 renal) of over 100 µM. For the same molecule, the GI50 (COLO 205 colon) was over 100 µM, the TGI (COLO 205 colon) was over 100 µM and the GI50 (SF-268 CNS) was 35.8 µM. It also gave a TGI (SF-268 CNS) of over 100 µM, a GI50 (NCI-H226 lung) of over 100 µM and a TGI (NCI-H226 lung) of over 100 µM. For the same molecule, the GI50 (SNB-75 CNS) was 35.1 µM, the TGI (SNB-75 CNS) was over 100 µM and the GI50 (SK-OV-3 ovarian) was over 100 µM. For the same molecule, the TGI (SK-OV-3 ovarian) was over 100 µM, the GI50 (NCI-H460 lung) was over 100 µM and the TGI (NCI-H460 lung) was over 100 µM. It also gave a GI50 (HCT-116 colon) of 18.1 µM, a TGI (HCT-116 colon) of over 100 µM and a GI50 (HT29 colon) of 37 µM. It also gave a TGI (HT29 colon) of over 100 µM, a GI50 (SF-539 CNS) of 45 µM and a TGI (SF-539 CNS) of over 100 µM. It also gave a GI50 (OVCAR-5 ovarian) of over 100 µM, a TGI (OVCAR-5 ovarian) of over 100 µM and a GI50 (OVCAR-8 ovarian) of 73.6 µM. The TGI (OVCAR-8 ovarian) was over 100 µM, the GI50 (RPMI-8226 leukemia) was 19.7 µM and the TGI (RPMI-8226 leukemia) was over 100 µM. For the same molecule, the GI50 (TK-10 renal) was 38.8 µM, the TGI (TK-10 renal) was over 100 µM and the GI50 (SK-MEL-5 melanoma) was 49.2 µM. It also gave a TGI (SK-MEL-5 melanoma) of over 100 µM, a GI50 (OVCAR-3 ovarian) of 58.3 µM and a TGI (OVCAR-3 ovarian) of over 100 µM. The GI50 (PC-3 prostate) was 26.7 µM, the TGI (PC-3 prostate) was over 100 µM and the GI50 (HOP-92 NSCLC) was 4.93 µM. For the same molecule, the TGI (HOP-92 NSCLC) was 70.5 µM, the GI50 (K-562 leukemia) was 4.08 µM and the TGI (K-562 leukemia) was over 100 µM. The GI50 (MDA-MB-435) was 4.47 µM, the TGI (MDA-MB-435) was 41.7 µM and the GI50 (RXF 393 renal) was 37 µM. For the same molecule, the TGI (RXF 393 renal) was over 100 µM, the GI50 (HOP-62 NSCLC) was 49.3 µM and the TGI (HOP-62 NSCLC) was over 100 µM. The GI50 (SR leukemia) was 3.82 µM, the TGI (SR leukemia) was over 100 µM and the GI50 (MALME-3M melanoma) was over 100 µM. For the same molecule, the TGI (MALME-3M melanoma) was over 100 µM, the GI50 (M14 melanoma) was 27.3 µM and the TGI (M14 melanoma) was over 100 µM. It also gave a GI50 (NCI/ADR-RES ovarian) of 19.6 µM, a TGI (NCI/ADR-RES ovarian) of over 100 µM and a GI50 (LOX IMVI melanoma) of 30.7 µM. The TGI (LOX IMVI melanoma) was over 100 µM, the GI50 (SW-620 colon) was 27.2 µM and the TGI (SW-620 colon) was over 100 µM. It also gave a GI50 (UO-31 renal) of 57.9 µM, a TGI (UO-31 renal) of over 100 µM and a GI50 (DU-145 prostate) of 94.9 µM. It also gave a TGI (DU-145 prostate) of over 100 µM, a GI50 (SNB-19 CNS) of 74.2 µM and a TGI (SNB-19 CNS) of over 100 µM. The GI50 (SF-295 CNS) was over 100 µM, the TGI (SF-295 CNS) was over 100 µM and the GI50 (IGROV1 ovarian) was 37 µM. The TGI (IGROV1 ovarian) was over 100 µM, the GI50 (HCT-15 colon) was 22 µM and the TGI (HCT-15 colon) was over 100 µM. The GI50 (KM12 colon) was 91.6 µM, the TGI (KM12 colon) was over 100 µM and the GI50 (NCI-H23 lung) was over 100 µM. The TGI (NCI-H23 lung) was over 100 µM, the GI50 (OVCAR-4 ovarian) was 75.4 µM and the TGI (OVCAR-4 ovarian) was over 100 µM. The GI50 (MDA-MB-231 breast) was 27.3 µM and the TGI (MDA-MB-231 breast) was over 100 µM.
